Measurements: the supplement of paper PMC10307832

Columns and labels:
Assay in all cases: relative viability (nuclei count vs DMSO), 5 days (fraction); higher = more cells survive
KN-93 + Vorinostat = compound: CN(C/C=C/C1=CC=C(C=C1)Cl)CC2=CC=CC=C2N(CCO)S(=O)(=O)C3=CC=C(C=C3)OC [KN-93] + O=C(CCCCCCC(=O)Nc1ccccc1)NO [Vorinostat] (partner 1 µM)
Procedure, shortened: (§1)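 Lung cancer cell lines in 1536-well plates were dosed by pin tool the day after seeding, either with one drug alone or with a fixed anchor-drug dose plus five library-drug doses (not always all listed) in √10 steps. After 5 days, cells were fixed and their nuclei stained in one step (final 0.05% Triton X-100, 1% formaldehyde, 1 ug/ml Hoechst), then counted on 4× images. Relative viability is the nuclei count in treated wells divided by that in vehicle wells. Values are medians of duplicate plates.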

KN-93 + Lapatinib = compound: CN(C/C=C/C1=CC=C(C=C1)Cl)CC2=CC=CC=C2N(CCO)S(=O)(=O)C3=CC=C(C=C3)OC [KN-93] + CS(=O)(=O)CCNCc1ccc(-c2ccc3ncnc(Nc4ccc(OCc5cccc(F)c5)c(Cl)c4)c3c2)o1 [Lapatinib] (partner 2 µM)
Procedure, shortened: as §1

KN-93 + Dasatinib = compound: CN(C/C=C/C1=CC=C(C=C1)Cl)CC2=CC=CC=C2N(CCO)S(=O)(=O)C3=CC=C(C=C3)OC [KN-93] + Cc1nc(Nc2ncc(C(=O)Nc3c(C)cccc3Cl)s2)cc(N2CCN(CCO)CC2)n1 [Dasatinib] (partner 0.075 µM)
Procedure, shortened: as §1

KN-93 + Navitoclax = compound: CN(C/C=C/C1=CC=C(C=C1)Cl)CC2=CC=CC=C2N(CCO)S(=O)(=O)C3=CC=C(C=C3)OC [KN-93] + CC1(C)CCC(c2ccc(Cl)cc2)=C(CN2CCN(c3ccc(C(=O)NS(=O)(=O)c4ccc(N[C@H](CCN5CCOCC5)CSc5ccccc5)c(S(=O)(=O)C(F)(F)F)c4)cc3)CC2)C1 [Navitoclax] (partner 0.5 µM)
Procedure, shortened: as §1

KN-93 = compound: CN(C/C=C/C1=CC=C(C=C1)Cl)CC2=CC=CC=C2N(CCO)S(=O)(=O)C3=CC=C(C=C3)OC [KN-93]
Procedure, shortened: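 Hoechst staining, done together with fixation and permeabilisation, marked nuclei for 4× imaging and MetaXpress counting. This followed 5 days without medium change after lung cancer cell lines, kept overnight at 37 °C in 1536-well plates, were pinned with five library-drug doses (not always all listed) spaced by √10 on vehicle-anchored plates. Viability is the ratio of treated-well to vehicle-well nuclei, expressed as a median across plates. Plates passed only at control CV below 25% with at least one doubling.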

Cell Line	relative viability (KN-93 + Vorinostat; first compound 0.08 µM)	relative viability (KN-93 + Vorinostat; first compound 0.253 µM)	relative viability (KN-93 + Vorinostat; first compound 2.53 µM)	relative viability (KN-93 + Vorinostat; first compound 8 µM)	relative viability (KN-93 + Lapatinib; first compound 0.08 µM)	relative viability (KN-93 + Lapatinib; first compound 0.253 µM)	relative viability (KN-93 + Lapatinib; first compound 2.53 µM)	relative viability (KN-93 + Lapatinib; first compound 8 µM)	relative viability (KN-93 + Dasatinib; first compound 0.08 µM)	relative viability (KN-93 + Dasatinib; first compound 0.253 µM)	relative viability (KN-93 + Dasatinib; first compound 2.53 µM)	relative viability (KN-93 + Dasatinib; first compound 8 µM)	relative viability (KN-93 + Navitoclax; first compound 0.08 µM)	relative viability (KN-93 + Navitoclax; first compound 0.253 µM)	relative viability (KN-93 + Navitoclax; first compound 2.53 µM)	relative viability (KN-93 + Navitoclax; first compound 8 µM)	relative viability (KN-93; 0.08 µM)	relative viability (KN-93; 0.253 µM)	relative viability (KN-93; 2.53 µM)	relative viability (KN-93; 8 µM)
NCI-H1975	0.614	0.812	0.728	0.452	0.656	1.05	0.976	0.579	0.339	0.336	0.351	0.224	0.797	1.36	1.26	0.756	0.886	0.942	0.945	0.706
PC-14	0.623	0.753	0.649	0.625	0.305	0.227	0.318	0.307	0.335	0.18	0.198	0.0533	0.851	1	1.21	0.977	0.943	1.04	1.2	0.92
NCI-H520	0.619	0.906	0.831	0.58	–	0.904	1.05	0.727	0.203	0.197	0.258	0.155	–	1.13	1.23	0.878	0.91	1.05	1.14	0.815
NCI-H2347	0.513	0.623	0.674	0.458	0.932	0.921	1.17	0.595	0.322	0.273	0.288	0.245	0.696	0.843	0.794	0.543	1.03	1.11	1.08	0.797
NCI-H2228	0.588	0.786	0.655	0.346	1.15	1.17	1.04	0.728	0.597	0.541	0.631	0.326	1.31	0.788	0.914	0.674	0.904	1.27	1.41	0.711
